The values that follow are results of earlier work, collected in article PMC8969080 (Dalton transactions (Cambridge, England : 2003), 2022).

The structures appear in SMILES notation. Like-named read-outs stand apart in the source and are kept apart here.

The conditions of the series: 1:1 Metal/Ligand, 50 μM.

With `O=C(O)CN(CCN(CC(=O)O)CC(=O)O)CCN(CC(=O)O)CC(=O)O` [DTPA, diethylenetriaminepentaacetic acid], the “Calculated pM (−log[M]free; M = Cu^2+)” value was 9.7 (pH 6.6) and 10.7 (pH 7.4).
